Experimental findings from patent publication US20250179047A1, “5-[7-(3,4-DIHYDRO-1H-ISOQUINOLINE-2-CARBONYL)-1,2,3,4 TETRAHYDROISOQUINOLIN-6-YL]-1H-PYRROLE-3-CARBOXAMIDE DERIVATIVES, PHARMACEUTICAL COMPOSITIONS CONTAINING THEM AND THEIR USES AS PRO-APOPTOTIC AGENTS” (LES LABORATOIRES SERVIER, priority 2022, published 2025) are described below.

The target of test [1] is BCL2 G101V (Homo sapiens, UniProt P10415, G101V). Nature of the test: TR-FRET competitive binding assay, BCL2 G101V. Conditions: BCL2 G101V; Ki determined from IC50; read-out: TR_FRET EKI_Bcl2 G101V. The essentials: (§1)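 Competitive TR-FRET displacement of fluorescein-PUMA peptide (2 or 20 nM) from 0.5 nM terbium-labelled N-terminal Halo-fusion BCL2 (1-207, wild type or mutant) or BCLXL (2-196), expressed in E. coli. Buffer 50 mM Hepes pH 7.5, 150 mM NaCl, 5% DMSO; 2 h at 23°C. 520/495 nm ratio fitted over 11 points for IC50, converted to Ki.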

Test [2] has as its system BCL2 G101V. The experiment in a line: TR-FRET competitive binding assay, BCL2 G101V. More on the design: species or system human. The following applies: ratio Ki BCL2 G101V / Ki BCL2 WT. The essentials:
as §1

In test [3] the test system is KMS-12-PE Bcl-2 WT. Nature of the test: In vitro cytotoxicity CellTiter-Glo 48 h, KMS-12-PE Bcl-2 WT. Type of test: cell-based. The following applies: Homo sapiens, KMS-12-PE, C50 = concentration needed to reach 50% of the cellular viability. The essentials: (§2)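 KMS-12-PE myeloma cells were lentivirally transduced with wild-type or G101V-mutant Bcl-2 and sorted by TagRFP. They were exposed to compounds as 11-point dose responses for 48 h at 37 °C, 5% CO2. Viability was read by CellTiter-Glo ATP luminescence, and C50 was the concentration giving 50% viability.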

The subject of test [4] is KMS-12-PE Bcl-2 G101V. Nature of the test: In vitro cytotoxicity CellTiter-Glo 48 h, KMS-12-PE Bcl-2 G101V. The following applies: for Ratio (G101V/WT): C50 KMS-12-PE Bcl-2 G101V over C50 KMS-12-PE Bcl-2 WT; for IC50: Homo sapiens, KMS-12-PE, 48 h, CellTiter-Glo, C50 = concentration needed to reach 50% of the cellular viability. The test is classed as cell-based. The method in brief:
as §2

The target of test [5] is BCL2 WT (Homo sapiens (Human), UniProt P10415). The experiment in a line: TR-FRET competitive binding assay, BCL2 WT. The following applies: Ki determined from IC50, read-out: TR_FRET EKI_Bcl2 WT. The method in brief: as §1
The target of test [6] is BCLXL WT (Homo sapiens (Human), UniProt Q07817). The experiment in a line: TR-FRET competitive binding assay, BCLXL WT. Conditions: for Ki: BCLXL WT, Ki determined from IC50, read-out: TR_FRET EKI BclxL; for TR_FRET EKI BCLxL/WT selectivty ratio: ratio Ki BCLxL / Ki BCL2 WT. The essentials:
as §1

The target in test [7] is BCL2 D103Y (Homo sapiens, UniProt P10415, D103Y). The experiment in a line: TR-FRET competitive binding assay, BCL2 D103Y. The following applies: Ki determined from IC50, read-out: TR_FRET EKI_Bcl2 D103Y. The essentials: as §1

Sequence of BCLXL WT (Q07817 other isoform, or with tags, fused parts or gaps): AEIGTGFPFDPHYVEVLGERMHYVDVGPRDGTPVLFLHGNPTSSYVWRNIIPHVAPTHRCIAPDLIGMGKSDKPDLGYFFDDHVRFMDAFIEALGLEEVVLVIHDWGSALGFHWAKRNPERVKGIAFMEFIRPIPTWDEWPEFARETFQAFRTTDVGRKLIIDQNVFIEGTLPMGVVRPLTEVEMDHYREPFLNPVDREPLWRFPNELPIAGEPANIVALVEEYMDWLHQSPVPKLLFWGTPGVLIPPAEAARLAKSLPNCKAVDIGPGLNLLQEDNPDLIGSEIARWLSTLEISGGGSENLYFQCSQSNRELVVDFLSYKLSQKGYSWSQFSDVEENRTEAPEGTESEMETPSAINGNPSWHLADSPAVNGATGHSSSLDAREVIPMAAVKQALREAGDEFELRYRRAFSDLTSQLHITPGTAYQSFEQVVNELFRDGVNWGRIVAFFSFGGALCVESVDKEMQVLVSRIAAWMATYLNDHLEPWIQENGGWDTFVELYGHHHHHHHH

Consider `Cc1c(C(=O)N(c2ccc(O)cc2)c2ccc3c(cnn3C)c2)cc(-c2cc3c(cc2C(=O)N2Cc4ccccc4C[C@H]2C)CN(C(=O)Cc2ccc(OCCN4CCOCC4)cc2)CC3)n1C` [Example 90, N-(4-hydroxyphenyl)-1,2-dimethyl-5-(7-{[(3R)-3-methyl-3,4-dihydro-1H-isoquinolin-2-yl]carbonyl}-2-(2-{4-[2-(morpholin-4-yl)ethoxy]phenyl}acetyl)-3,4-dihydro-1H-isoquinolin-6-yl)-N-(1-methylindazol-5-yl)pyrrole-3-carboxamide], for which the Ki in test [1] was found to be 0.8 nM; in test [5], 0.25 nM; in test [6] it was 4.5 nM; in test [7], 0.88 nM. Moreover, the “TR_FRET EKI G101V/WT selectivty ratio” value in test [2] amounted to 3.4. For the same compound, the IC50 worked out at 0.0111 µM in test [3] and 0.0657 µM in test [4]. Further, the “Ratio (G101V/WT)” value in test [4] was 5.92. For the same compound, in test [6], the “TR_FRET EKI BCLxL/WT selectivty ratio” value stood at 18.0.

`Cc1c(N(C(=O)c2cc(-c3cc4c(cc3C(=O)N3Cc5ccccc5C[C@H]3CN3CCCCC3)CN(C(=O)Cc3ccc(OCCN5CCOCC5)cc3F)CC4)n(C)c2C)c2ccccc2)cc(C#N)n1C` [Example 92, N-(5-cyano-1,2-dimethyl-pyrrol-3-yl)-5-[2-[2-[2-fluoro-4-(2-morpholinoethoxy)phenyl]acetyl]-7-[(3S)-3-(1-piperidylmethyl)-3,4-dihydro-1H-isoquinoline-2-carbonyl]-3,4-dihydro-1H-isoquinolin-6-yl]-1,2-dimethyl-N-phenyl-pyrrole-3-carboxamide]: the Ki in test [1] is 0.9 nM; in test [5], 0.03 nM; in test [6], 8.5 nM; in test [7], 0.11 nM. In addition, in test [2], the “TR_FRET EKI G101V/WT selectivty ratio” value is recorded as 30.7. The results for the IC50 in test [3] and in test [4] were 0.0085 µM and 0.0974 µM, respectively. Besides, the “Ratio (G101V/WT)” value in test [4] is listed as 11.7. In test [6], the “TR_FRET EKI BCLxL/WT selectivty ratio” value amounted to 303.6.

`Cc1c(N(C(=O)c2cc(-c3cc4c(cc3C(=O)N3Cc5ccccc5C[C@H]3C)CN(C(=O)Cc3ccc(OCCN5CCOC6(CC6)C5)cc3)CC4)n(C)c2C)c2ccc(O)cc2)cc(C#N)n1C` [Example 93, N-(5-cyano-1,2-dimethyl-1H-pyrrol-3-yl)-N-(4-hydroxyphenyl)-1,2-dimethyl-5-{7-[(3R)-3-methyl-1,2,3,4-tetrahydroisoquinoline-2-carbonyl]-2-{2-[4-(2-{4-oxa-7-azaspiro[2.5]octan-7-yl}ethoxy)phenyl]acetyl}-1,2,3,4-tetrahydroisoquinolin-6-yl}-1H-pyrrole-3-carboxamide]: the Ki in test [1] was found to be 1.1 nM; in test [5], 0.19 nM; in test [6] it was 2.4 nM; in test [7] it was 0.34 nM. Moreover, the “TR_FRET EKI G101V/WT selectivty ratio” value in test [2] was found to be 5.5. For the same compound, the figures for the IC50 in test [3] and in test [4] were 0.0053 µM and 0.0182 µM, respectively. Besides, in test [4], the “Ratio (G101V/WT)” value is reported as 3.45. For the same compound, the “TR_FRET EKI BCLxL/WT selectivty ratio” value in test [6] was found to be 12.6.

As to `Cc1c(C(=O)N(c2ccc(O)cc2)c2cc(C#N)n(C(F)F)c2C)cc(-c2cc3c(cc2C(=O)N2Cc4ccccc4C[C@H]2C)CN(C(=O)Cc2ccc(OCCN4CCOCC4)cc2F)CC3)n1C` [Example 94, N-[5-cyano-1-(difluoromethyl)-2-methylpyrrol-3-yl]-5-[2-(2-{2-fluoro-4-[2-(morpholin-4-yl)ethoxy]phenyl}acetyl)-7-{[(3R)-3-methyl-3,4-dihydro-1H-isoquinolin-2-yl]carbonyl}-3,4-dihydro-1H-isoquinolin-6-yl]-N-(4-hydroxyphenyl)-1,2-dimethylpyrrole-3-carboxamide], the Ki in test [1] turned out to be 1.1 nM; in test [5], 0.22 nM; in test [6] it was 3.3 nM; in test [7], 0.66 nM. Also, in test [2], the “TR_FRET EKI G101V/WT selectivty ratio” value stood at 5.0. Besides, the IC50 in test [3] was 0.0032 µM; in test [4], 0.0107 µM. Further, in test [4], the “Ratio (G101V/WT)” value was found to be 3.31. In addition, the “TR_FRET EKI BCLxL/WT selectivty ratio” value in test [6] was 15.0.

For the compound `Cc1c(C(=O)N(c2ccc(O)cc2)c2cc(C#N)n(C(F)F)c2C)cc(-c2cc3c(cc2C(=O)N2Cc4ccccc4C[C@H]2C)CN(C(=O)Cc2ccc(OCCN4CCOCC4)cc2)CC3)n1C` [Example 95, N-[5-cyano-1-(difluoromethyl)-2-methylpyrrol-3-yl]-N-(4-hydroxyphenyl)-1,2-dimethyl-5-(7-{[(3R)-3-methyl-3,4-dihydro-1H-isoquinolin-2-yl]carbonyl}-2-(2-{4-[2-(morpholin-4-yl)ethoxy]phenyl}acetyl)-3,4-dihydro-1H-isoquinolin-6-yl)pyrrole-3-carboxamide], the Ki in test [1] amounted to 0.6 nM; in test [5], 0.18 nM; in test [6], 3.9 nM; in test [7], 0.46 nM. For the same compound, the “TR_FRET EKI G101V/WT selectivty ratio” value in test [2] stood at 3.2. Further, the IC50 worked out at 0.0048 µM in test [3] and 0.0196 µM in test [4]. For the same compound, the “Ratio (G101V/WT)” value in test [4] was 4.11. In addition, the “TR_FRET EKI BCLxL/WT selectivty ratio” value in test [6] amounted to 21.7.

`Cc1c(N(C(=O)c2cc(-c3cc4c(cc3C(=O)N3Cc5ccccc5C[C@H]3CN3CCCC3)CN(C(=O)Cc3ccc(OCCC5CCOCC5)cc3)CC4)n(C)c2C)c2ccc(O)cc2)cc(C#N)n1C` [Example 99, N-(5-cyano-1,2-dimethylpyrrol-3-yl)-N-(4-hydroxyphenyl)-1,2-dimethyl-5-[2-(2-{4-[2-(oxan-4-yl)ethoxy]phenyl}acetyl)-7-{[(3S)-3-(pyrrolidin-1-ylmethyl)-3,4-dihydro-1H-isoquinolin-2-yl]carbonyl}-3,4-dihydro-1H-isoquinolin-6-yl]pyrrole-3-carboxamide]: the Ki in test [1] came to 0.3 nM; in test [5] it was 0.05 nM; in test [6], 2.8 nM; in test [7] it was 0.14 nM. Further, the “TR_FRET EKI G101V/WT selectivty ratio” value in test [2] was determined as 5.2. Moreover, the IC50 in test [3] turned out to be 0.0105 µM; in test [4], 0.0763 µM. Also, the “Ratio (G101V/WT)” value in test [4] amounted to 7.27. In test [6], the “TR_FRET EKI BCLxL/WT selectivty ratio” value turned out to be 52.8.

For the compound `Cc1c(N(C(=O)c2cc(-c3cc4c(cc3C(=O)N3Cc5ccccc5C[C@H]3CN3CCCC3)CN(C(=O)Cc3ccc(OCCN5CCOCC5)cc3F)CC4)n(C)c2C)c2ccc(O)cc2)cc(C#N)n1C` [Example 100, N-(5-cyano-1,2-dimethylpyrrol-3-yl)-5-[2-(2-{2-fluoro-4-[2-(morpholin-4-yl)ethoxy]phenyl}acetyl)-7-{[(3S)-3-(pyrrolidin-1-ylmethyl)-3,4-dihydro-1H-isoquinolin-2-yl]carbonyl}-3,4-dihydro-1H-isoquinolin-6-yl]-N-(4-hydroxyphenyl)-1,2-dimethylpyrrole-3-carboxamide], the Ki is 0.2 nM in test [1], 0.02 nM in test [5], 2.3 nM in test [6] and 0.06 nM in test [7]. Moreover, the “TR_FRET EKI G101V/WT selectivty ratio” value in test [2] was determined as 8.9. Further, the IC50 in test [3] was 0.0156 µM; in test [4], 0.066 µM. In test [4], the “Ratio (G101V/WT)” value is recorded as 4.23. Further, in test [6], the “TR_FRET EKI BCLxL/WT selectivty ratio” value is 127.8.

`Cc1c(N(C(=O)c2cc(-c3cc4c(cc3C(=O)N3Cc5ccccc5C[C@H]3CN3CCCCC3)CN(C(=O)Cc3ccc(OCCN(C)CC5COC5)cc3F)CC4)n(C)c2C)c2ccc(O)cc2)cc(C#N)n1C` [Example 103, N-(5-cyano-1,2-dimethyl-1H-pyrrol-3-yl)-5-(2-{2-[2-fluoro-4-(2-{methyl[(oxetan-3-yl)methyl]amino}ethoxy)phenyl]acetyl}-7-[(3S)-3-[(piperidin-1-yl)methyl]-1,2,3,4-tetrahydroisoquinoline-2-carbonyl]-1,2,3,4-tetrahydroisoquinolin-6-yl)-N-(4-hydroxyphenyl)-1,2-dimethyl-1H-pyrrole-3-carboxamide]: the Ki is 0.2 nM in test [1], 0.03 nM in test [5], 1.1 nM in test [6] and 0.09 nM in test [7]. The “TR_FRET EKI G101V/WT selectivty ratio” value in test [2] is listed as 6.5. In addition, the IC50 was 0.006 µM in test [3] and 0.0399 µM in test [4]. In addition, the “Ratio (G101V/WT)” value in test [4] stood at 6.66. In test [6], the “TR_FRET EKI BCLxL/WT selectivty ratio” value is listed as 35.5.
